From patent publication US9328138B2 (priority 2011, dated 2016) come the findings set out here.

Experiment [1] concerns the target HCV NS3 protease genotype 3a (3A-1) (Hepatitis C virus genotype 3a, UniProt Q81258). In words: HCV NS3 protease time-resolved fluorescence (TRF) assay, genotype 3a. Format: biochemical. To be noted: Ki 3a. Summed up: (§1)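 Inhibitor titrations are mixed with NS3/NS4A in pH 7.5 HEPES buffer containing 10 mM DTT and 15% glycerol for 10 min before substrate (25 nM final) is added. After 6 h at room temperature, delayed fluorescence is read and fitted to a four-parameter curve for IC50.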

Experiment [2] has as its target T1, HCV genotype 1b (BK) NS3 modified enzyme with a R155K mutation (Hepatitis C virus genotype 1b, UniProt P26663, R1181K).
T1 construct: HCV genotype 1b (BK) NS3 modified enzyme
Description: HCV NS3 protease time-resolved fluorescence (TRF) assay, genotype 1b R155K. It counts as biochemical. The conditions noted are these: Ki 1b R155K. Summed up:
as §1

Where [3] appears, read: first of two values printed in the cell (not explained).
The mark [4] stands for this setting: second of two values printed in the cell (not explained).
[5] abbreviates: genotype 1b (BK) NS3 R155K, single value.

SMILES strings stand for the structures.

For the compound `C=C[C@@H]1C[C@]1(NC(=O)[C@@H]1C[C@@H]2CN1C(=O)[C@H](C1CCCCC1)NC(=O)O[C@@H]1C[C@H]1CCCCCc1c(nc3ccccc3c1OC1CC3COCC(C1)N3)O2)C(=O)NS(=O)(=O)C1(C)CC1` (stereo partly drawn) [Example 288, (1aR,5S,8S,10R,22aR)-5-cyclohexyl-N-[(1R,2S)-2-ethenyl-1-{[(1-methylcyclopropyl)sulfonyl]carbamoyl}cyclopropyl]-17-(3-oxa-9-azabicyclo[3.3.1]non-7-yloxy)-3,6-dioxo-1,1a,3,4,5,6,9,10,18,19,20,21,22,22a-tetradecahydro-8H-7,10-methanocyclopropa[18,19][1,10,3,6]dioxadiazacyclononadecino[11,12-b]quinoline-8-carboxamide], the results for the Ki in experiment [1], in experiment [2] (setting [3]) and in experiment [2] (setting [4]) were 0.224 nM, 0.018 nM and 0.05 nM, respectively.

Take `C=C[C@@H]1C[C@]1(NC(=O)[C@@H]1C[C@@H]2CN1C(=O)[C@H](C1CCCCC1)NC(=O)O[C@@H]1C[C@H]1CCCCCc1c(nc3ccccc3c1OC1CC3CCC(C1)N3)O2)C(=O)NS(=O)(=O)C1(C)CC1` (stereo partly drawn) [Example 283, potassium {[(1R,2S)-1-({[(1aR,5S,8S,10R,22aR)-17-(8-azabicyclo[3.2.1]oct-3-yloxy)-5-cyclohexyl-3,6-dioxo-1,1a,3,4,5,6,9,10,18,19,20,21,22,22a-tetradecahydro-8H-7,10-methanocyclopropa[18,19][1,10,3,6]dioxadiazacyclononadecino[11,12-b]quinolin-8-yl]carbonyl}amino)-2-ethenylcyclopropyl]carbonyl}[(1-methylcyclopropyl)sulfonyl]azanide]: the Ki in experiment [1] amounted to 0.108 nM; in experiment [2] (setting [3]), 0.014 nM; in experiment [2] (setting [4]), 0.022 nM.

With `C=C[C@@H]1C[C@]1(NC(=O)[C@@H]1C[C@@H]2CN1C(=O)[C@H](C(C)(C)C)NC(=O)O[C@@H]1C[C@H]1CCCCCc1c(nc3ccccc3c1OCCCN1CC(O)(c3ccccc3)C1)O2)C(=O)NS(=O)(=O)C1(C)CC1` [Example 193, (1aR,5S,8S,10R,22aR)-5-tert-butyl-N-[(1R,2S)-2-ethenyl-1-{[(1-methylcyclopropyl)sulfonyl]carbamoyl}cyclopropyl]-17-[3-(3-hydroxy-3-phenylazetidin-1-yl)propoxy]-3,6-dioxo-1,1a,3,4,5,6,9,10,18,19,20, 21,22,22a-tetradeca hydro-8H-7,10-methanocyclopropa[18,19][1,10,3,6] dioxadiazacyclononadecino[11,12-b] quinoline-8-carboxamide], the Ki in experiment [1] came to 1.5 nM; in experiment [2] (setting [5]), 0.16 nM.

For `C=C[C@@H]1C[C@]1(NC(=O)[C@@H]1C[C@@H]2CN1C(=O)[C@H](C(C)(C)C)NC(=O)O[C@@H]1C[C@H]1CCCCCc1c(nc3ccccc3c1OC1CCN(C3CC3)CC1)O2)C(=O)NS(=O)(=O)C1(C)CC1` [Example 220, (1aR,5S,8S,10R,22aR)-5-tert-butyl-17-[(1-cyclopropylpiperidin-4-yl)oxy]-N-[(1R,2S)-2-ethenyl-1-{[(1-methylcyclopropyl)sulfonyl]carbamoyl}cyclopropyl]-3,6-dioxo-1,1a,3,4,5,6,9,10,18,19,20,21,22,22a-tetradecahydro-8H-7,10-methanocyclopropa[18,19][1,10,3,6] dioxadiazacyclononadecino[11,12-b]quinoline-8-carboxamide], the Ki was determined as 3.9 nM in experiment [1] and 0.29 nM in experiment [2] (setting [5]).

Take `C=C[C@@H]1C[C@]1(NC(=O)[C@@H]1C[C@@H]2CN1C(=O)[C@H](C(C)(C)C)NC(=O)O[C@@H]1C[C@H]1CCCCCc1c(nc3ccccc3c1OC[C@@H]1CCN(C(=O)OC(C)(C)C)C1)O2)C(=O)NS(=O)(=O)C1(C)CC1` [Example 138, tert-butyl (3R)-3-({[(1aR,5S,8S,10R, 22aR)-5-tert-butyl-8-{[(1R,2S)-2-ethenyl-1-{[(1-methylcyclopropyl)sulfonyl]carbamoyl}cyclopropyl]carbamoyl}-3,6-dioxo-1,1a,3,4,5,6,9,10,18,19,20, 21,22,22a-tetradeca hydro-8H-7,10-methanocyclopropa [18,19][1,10,3,6]dioxadiazacyclononadecino[11,12-b]quinolin-17-yl]oxy}methyl)pyrrolidine-1-carboxylate]: the Ki in experiment [1] was found to be 7 nM; in experiment [2] (setting [5]), 0.63 nM.

Turning to `C=C[C@@H]1C[C@]1(NC(=O)[C@@H]1C[C@@H]2CN1C(=O)[C@H](C(C)(C)C)NC(=O)O[C@@H]1C[C@H]1CCCCCc1c(nc3ccccc3c1OCCCN1CC(F)C1)O2)C(=O)NS(=O)(=O)C1(C)CC1` [Example 155, (1aR,5S,8S,10R,22aR)-5-tert-butyl-N-[(1R,2S)-2-ethenyl-1-{[(1-methylcyclopropyl)sulfonyl]carbamoyl}cyclopropyl]-17-[3-(3-fluoroazetidin-1-yl)propoxy]-3,6-dioxo-1,1a,3,4,5,6,9,10,18,19,20, 21,22,22a-tetradecahydro-8H-7,10-methanocyclopropa[18,19][1,10,3,6] dioxadiazacyclononadecino [11,12-b]quinoline-8-carboxamide], the Ki in experiment [1] is 1.4 nM; in experiment [2] (setting [5]) it was 0.11 nM.

For the compound `C=C[C@@H]1C[C@]1(NC(=O)[C@@H]1C[C@@H]2CN1C(=O)[C@H](C(C)(C)C)NC(=O)O[C@@H]1C[C@H]1CCCCCc1c(nc3ccccc3c1-c1ccncc1)O2)C(=O)NS(=O)(=O)C1(C)CC1` [Example 244, (1aR,5S,8S,10R,22aR)-5-tert-butyl-N-[(1R,2S)-2-ethenyl-1-{[(1-methylcyclopropyl)sulfonyl]carbamoyl}cyclopropyl]-3,6-dioxo-17-(pyridin-4-yl)-1,1a,3,4,5,6,9,10,18,19,20,21,22,22a-tetradecahydro-8H-7,10-methanocyclopropa[18,19][1,10,3,6]dioxadiazacyclononadecino[11,12-b]quinoline-8-carboxamide], the Ki came out at 296 nM in experiment [1], 1.59 nM in experiment [2] (setting [3]) and 1.65 nM in experiment [2] (setting [4]).

In the case of `C=C[C@@H]1C[C@]1(NC(=O)[C@@H]1C[C@@H]2CN1C(=O)[C@H](C(C)(C)C)NC(=O)O[C@@H]1C[C@H]1CCCCCc1c(nc3ccccc3c1OC1CC3CCC(C1)N3C(=O)OC(C)(C)C)O2)C(=O)NS(=O)(=O)C1(C)CC1` (single isomer, unassigned) [Example 273], the results for the Ki in experiment [1], in experiment [2] (setting [3]) and in experiment [2] (setting [4]) were 68 nM, 0.1 nM and 1.85 nM, respectively.

Turning to `C=C[C@@H]1C[C@]1(NC(=O)[C@@H]1C[C@@H]2CN1C(=O)[C@H](C1CCCC1)NC(=O)O[C@@H]1CCC[C@H]1CCCCCc1c(nc3ccccc3c1OCC)O2)C(=O)NS(=O)(=O)C1CC1` [Example 24, (3aR,7S,10S,12R,24aR)-7-cyclopentyl-N-{(1R,2S)-1-[(cyclopropylsulfonyl)carbamoyl]-2-ethenylcyclopropyl}-19-ethoxy-5,8-dioxo-1,2,3,3a,5,6,7,8,11,12,20,21,22,23,24,24a-hexadecahydro-10H-9,12-methanocyclopenta[18,19][1,10,3,6]dioxadiazacyclononadecino[11,12-b]quinoline-10-carboxamide], the results for the Ki in experiment [1] and in experiment [2] (setting [5]) were 9.1 nM and 0.39 nM, respectively.

`C=C[C@@H]1C[C@]1(NC(=O)[C@@H]1C[C@@H]2CN1C(=O)[C@H](C(C)(C)C)NC(=O)O[C@@H]1C[C@H]1CCCCCc1c(nc3ccccc3c1OCCCN1CC(F)(F)C1)O2)C(=O)NS(=O)(=O)C1(C)CC1` [Example 206, (1aR,5S,8S,10R,22aR)-5-tert-butyl-17-[3-(3,3-difluoroazetidin-1-yl)propoxy]-N-[(1R,2S)-2-ethenyl-1-{[(1-methylcyclopropyl)sulfonyl]carbamoyl}cyclopropyl]-3,6-dioxo-1,1a,3,4,5,7,9,10,18,19,20,21,22,22a-tetradecahydro-8H-7,10-methanocyclopropa[18,19][1,10,3,6] dioxadiazacyclononadecino[11,12-b] quinoline-8-carboxamide]: the inhibition constant Ki in experiment [1] came out at 2.6 nM; in experiment [2] (setting [5]), 0.2 nM.

For the compound `C=C[C@@H]1C[C@]1(NC(=O)[C@@H]1C[C@@H]2CN1C(=O)[C@H](C1CCCC1)NC(=O)O[C@H]1C[C@@H]1CC/C=C/Cc1c(nc3ccccc3c1OC)O2)C(=O)NS(=O)(=O)C1CC1` [Example 12, (1aS,5S,8S,10R,19E,22aS)-5-cyclo pentyl-N-{(1R,2S)-1-[(cyclopropylsulfonyl)carbamoyl]-2-ethenylcyclopropyl}-17-methoxy-3,6-dioxo-1,1a,3,4,5,6,9,10,18,21,22,22a-dodecahydro-8H-7,10-methanocyclopropa[18,19][1,10,3,6] dioxadiazacyclononadecino[11,12-&]quinoline-8-carboxamide], the results for the Ki in experiment [1] and in experiment [2] (setting [5]) were 340 nM and 3.3 nM, respectively.

As to `C=C[C@@H]1C[C@]1(NC(=O)[C@@H]1C[C@@H]2CN1C(=O)[C@H](C1CCCC1)NC(=O)O[C@@H]1CCC[C@H]1CC/C=C/Cc1c(nc3ccccc3c1OCCCO)O2)C(=O)NS(=O)(=O)C1CC1` [Example 72, (3aR,7S,10S,12R,21E,24aS)-7-cyclopentyl-N-{(1R,2S)-1-[(cyclopropylsulfonyl)carbamoyl]-2-ethenylcyclopropyl}-19-(3-hydroxypropoxy)-5,8-dioxo-1,2,3,3a,5,6,7,8,11,12,20,23,24,24a-tetradecahydro-10H-9,12-methanocyclopenta[18,19][1,10,3,6]dioxadiazacyclononadecino[11,12-b]quinoline-10-carboxamide], the results for the Ki in experiment [1] and in experiment [2] (setting [5]) were 1.1 nM and less than 0.016 nM, respectively.

Usually Ki stands for a dissociation constant, usually derived from enzyme kinetics or from competition with a known ligand. The low end stands for tighter binding, the high end for weaker binding.
